The target of data set [1] is Transient receptor potential cation channel subfamily A member 1 (Homo sapiens) (UniProt O75762). As to the kind of experiment: Agonist activity at human TRPA1 expressed in HEK293E cells assessed as calcium mobilization measured every 2 sec for 150 sec by microplate reader analysis. The class given is cell-based. To be noted: filed as agonist. (In general: Calcium flux is commonly read through the fluorescence of an indicator in the cells.)

Data set [2] concerns the target Transient receptor potential cation channel subfamily A member 1 (Rattus norvegicus) (UniProt Q6RI86). The data set is described as follows: Agonist activity at rat TRPA1 expressed in HEK293E cells assessed as calcium mobilization measured every 2 sec for 150 sec by microplate reader analysis. The format is cell-based. Conditions: filed as agonist.
Data set [3] can be described thus: Cytotoxicity against human T24 cells by XTT assay. The format is toxicity, cell-based, T-24.
Data set [4] deals with Transient receptor potential cation channel subfamily A member 1 (Rattus norvegicus, UniProt Q6RI86). The data set is described as follows: Agonist activity at rat TRPA1 expressed in HEK293 cells. The class given is cell-based.

Converted amounts (≈) assume the structure as drawn. The source made the active and inactive calls. The calls are words filed in the database; no cut-off is given here.

A word on the IC50: it is the concentration that inhibits the measured activity by half. A high value points to weaker potency. Broadly, the EC50 is the midpoint of the concentration-response curve. Higher therefore signals lower potency in that assay.

Sequence of Transient receptor potential cation channel subfamily A member 1 (Homo sapiens) (O75762 whole entry): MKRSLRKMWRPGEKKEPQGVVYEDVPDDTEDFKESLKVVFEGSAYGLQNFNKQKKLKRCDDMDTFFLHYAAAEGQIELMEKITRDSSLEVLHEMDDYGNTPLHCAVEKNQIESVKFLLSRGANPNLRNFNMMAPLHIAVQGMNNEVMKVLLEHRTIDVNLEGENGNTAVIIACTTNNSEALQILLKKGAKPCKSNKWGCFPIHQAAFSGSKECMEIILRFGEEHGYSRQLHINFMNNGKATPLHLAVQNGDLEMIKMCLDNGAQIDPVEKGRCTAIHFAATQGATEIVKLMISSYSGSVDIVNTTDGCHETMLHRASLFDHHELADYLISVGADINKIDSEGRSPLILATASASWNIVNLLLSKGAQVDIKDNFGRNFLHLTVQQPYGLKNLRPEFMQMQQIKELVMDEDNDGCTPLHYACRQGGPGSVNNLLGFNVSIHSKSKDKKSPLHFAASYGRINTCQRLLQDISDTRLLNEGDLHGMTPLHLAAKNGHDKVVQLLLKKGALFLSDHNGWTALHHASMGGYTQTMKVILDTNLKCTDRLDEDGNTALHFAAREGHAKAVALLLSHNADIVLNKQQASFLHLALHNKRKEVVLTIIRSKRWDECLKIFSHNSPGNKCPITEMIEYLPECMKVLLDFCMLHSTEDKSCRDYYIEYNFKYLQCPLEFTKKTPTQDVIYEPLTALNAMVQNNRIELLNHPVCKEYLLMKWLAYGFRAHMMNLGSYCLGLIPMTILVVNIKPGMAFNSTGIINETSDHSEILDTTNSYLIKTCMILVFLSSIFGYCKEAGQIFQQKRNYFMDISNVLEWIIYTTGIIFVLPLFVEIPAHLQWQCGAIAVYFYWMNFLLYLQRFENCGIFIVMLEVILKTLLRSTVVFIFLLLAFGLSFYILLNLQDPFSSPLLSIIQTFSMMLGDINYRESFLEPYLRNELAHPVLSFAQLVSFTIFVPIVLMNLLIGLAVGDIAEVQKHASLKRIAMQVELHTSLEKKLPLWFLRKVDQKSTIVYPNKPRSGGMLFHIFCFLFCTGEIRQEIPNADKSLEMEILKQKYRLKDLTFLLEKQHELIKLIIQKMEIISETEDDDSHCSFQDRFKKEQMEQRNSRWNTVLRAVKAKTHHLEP
Sequence of Transient receptor potential cation channel subfamily A member 1 (Rattus norvegicus) (Q6RI86 whole entry): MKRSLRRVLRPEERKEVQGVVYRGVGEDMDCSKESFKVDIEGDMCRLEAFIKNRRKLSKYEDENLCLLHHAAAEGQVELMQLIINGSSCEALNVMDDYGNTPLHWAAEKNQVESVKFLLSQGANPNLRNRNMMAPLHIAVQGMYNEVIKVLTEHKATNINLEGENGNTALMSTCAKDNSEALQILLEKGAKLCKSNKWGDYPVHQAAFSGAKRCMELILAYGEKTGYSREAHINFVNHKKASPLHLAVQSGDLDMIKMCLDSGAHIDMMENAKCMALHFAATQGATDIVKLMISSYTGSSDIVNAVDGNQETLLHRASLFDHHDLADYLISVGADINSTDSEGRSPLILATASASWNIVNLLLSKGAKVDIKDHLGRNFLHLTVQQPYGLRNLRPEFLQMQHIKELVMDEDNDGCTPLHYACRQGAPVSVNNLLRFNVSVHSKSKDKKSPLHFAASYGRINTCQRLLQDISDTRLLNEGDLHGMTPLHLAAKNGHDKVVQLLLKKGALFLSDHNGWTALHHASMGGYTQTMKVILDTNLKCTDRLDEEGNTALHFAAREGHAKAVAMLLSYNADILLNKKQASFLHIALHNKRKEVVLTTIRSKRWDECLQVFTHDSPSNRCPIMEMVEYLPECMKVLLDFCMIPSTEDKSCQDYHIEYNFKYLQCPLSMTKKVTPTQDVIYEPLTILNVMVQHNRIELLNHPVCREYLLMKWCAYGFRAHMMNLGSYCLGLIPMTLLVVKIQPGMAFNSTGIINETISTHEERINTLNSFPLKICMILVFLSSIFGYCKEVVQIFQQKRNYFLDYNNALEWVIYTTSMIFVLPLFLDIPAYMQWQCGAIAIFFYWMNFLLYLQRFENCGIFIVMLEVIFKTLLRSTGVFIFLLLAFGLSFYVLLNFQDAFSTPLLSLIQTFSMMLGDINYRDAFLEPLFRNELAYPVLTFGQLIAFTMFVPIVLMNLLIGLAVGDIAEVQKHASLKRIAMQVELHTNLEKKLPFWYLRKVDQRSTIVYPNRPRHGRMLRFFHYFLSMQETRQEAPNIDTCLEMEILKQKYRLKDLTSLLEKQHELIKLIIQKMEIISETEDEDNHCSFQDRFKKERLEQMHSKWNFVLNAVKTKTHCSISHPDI
Sequence of Transient receptor potential cation channel subfamily A member 1 (Q6RI86 whole entry): as above

As for `CCCCCc1cc(O)c2c(c1)O[C@](C)(CCC=C(C)C)C=C2`, the result in data set [1] and in data set [2] was Active. `CCCCCc1cc(O)c2c(c1)OC(C)(C)[C@@H]1CCC(C)=C[C@@H]21` [DRONABINOL] came in with an IC50 in data set [3] of 13 µg/mL (≈ 41.5 µM). Regarding `CCCCCc1cc(O)c2c(c1)O[C@@](C)(CCC=C(C)C)C=C2`, the result in data set [1] and in data set [2] was Active.

The molecule `CCCCCc1cc(O)c2c(c1)OC(C)(CCC=C(C)C)C=C2` (racemic) [CANNABICHROMENE] showed an IC50 in data set [3] of 13 µg/mL (≈ 41.5 µM). The molecule further gave an EC50 in data set [4] of 90 nM.

The values are drawn from ChEMBL document CHEMBL5357003, “A Simple Chiral 1H NMR Method for the Discrimination of (R)- and (S)-Cannabichromene in Complex Natural Mixtures and Their Effects on TRPA1 Activity” (J Nat Prod, 2024).
